Values joined by “and” are separate entries in the source; they are usually repeats but may differ in a detail not shown here. Equal values may be shown once.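 Cells were grown in 96-well plates and exposed to each compound for 48 hours at five concentrations; endpoints were interpolated linearly between bracketing concentrations, or set to the highest concentration if not reached. Here, GI50 denotes the concentration required for 50% inhibition of growth. TGI: total growth inhibition.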
Tests used:
Assay in all cases: growth of human tumour cells (NCI), 48 h
[1] = tested on: A498 renal
[2] = tested on: ACHN renal
[3] = tested on: COLO 205 colon
[4] = tested on: HCT-116 colon
[5] = tested on: HCT-15 colon
[6] = tested on: PC-3 prostate
[7] = tested on: SK-MEL-5 melanoma
[8] = tested on: SR leukemia
[9] = tested on: SW-620 colon
[10] = tested on: UO-31 renal

| Structure (SMILES) | GI50 [1] | TGI [1] | GI50 [2] | TGI [2] | GI50 [3] | GI50 [4] | TGI [4] | GI50 [5] | TGI [5] [µM] | GI50 [6] | TGI [6] [µM] | GI50 [7] | TGI [7] | GI50 [8] | TGI [8] | GI50 [9] | TGI [9] [µM] | GI50 [10] | TGI [10] | TGI [3] [µM] |
| --- | --- | --- | --- | --- | --- | --- | --- | --- | --- | --- | --- | --- | --- | --- | --- | --- | --- | --- | --- | --- |
| CN1CCN(c2ccc(OC(F)(F)F)c(Nc3ncc4c(n3)-c3c(c(C(N)=O)nn3CCO)CC4)c2)CC1 | 0.0469 µM and 0.101 µM | 0.638 µM and 0.588 µM | 0.43 µM and 0.814 µM | 20.2 µM and > 10 µM | 0.0255 µM and 0.0275 µM | 0.0353 µM and 0.0452 µM | 18.7 µM and > 10 µM | 0.213 µM and 0.266 µM | > 100 | 0.0663 µM and 0.0986 µM | > 82.4 | 0.106 µM and 0.309 µM | 16.7 µM and > 10 µM | 0.0231 µM and 0.03 µM | 18.6 µM and > 3.19 µM | 0.0273 µM and 0.0316 µM | > 84.3 | 2.88 µM and 2.28 µM | 38.2 µM and > 9.18 µM | – |
| NCCCOc1cc2ccccc2cc1C(=O)Nc1ccc(Cl)cc1OC(=O)c1cc2ccccc2cc1OCCCN | 1.53 µM | 2.92 µM | 0.373 µM | 0.972 µM | 1.27 µM | 0.175 µM | 0.313 µM | 0.468 µM | 1.15 | 0.575 µM | 1.58 | 1.23 µM | 2.49 µM | 0.257 µM | 1.48 µM | 0.181 µM | 0.345 | 0.179 µM | 0.433 µM | 2.63 |
| CCCCCCCCCCCCCCCCCCNCc1ccc(Cl)cc1 | 14 µM | 31.9 µM | 2.15 µM | 5.54 µM | 1.96 µM | 3.03 µM | 11.7 µM | 1.93 µM | 4.71 | 1.94 µM | 3.96 | 15.7 µM | 30.3 µM | 2.08 µM | 6.58 µM | 1.87 µM | 4.03 | 1.6 µM | 3.45 µM | 4 |
| O=C(Nc1cccc(-n2cc(-c3ccncc3)c(-c3ccc(O)c(Cl)c3)n2)c1)c1ccc2c(c1)OCCO2 | > 100 µM | > 100 µM | 7.38 µM | > 100 µM | 89.2 µM | 5.44 µM | > 100 µM | 3.7 µM | > 100 | 7.3 µM | > 100 | 3.95 µM | > 100 µM | 2.46 µM | > 100 µM | > 100 µM | > 100 | 4.03 µM | > 100 µM | > 100 |
| O=C1/C=C/[C@@H](O)[C@@H]2C[C@@H](O)C[C@H]2/C=C/CCC[C@H](CCc2ccc3ncccc3c2)O1 | 0.1 µM | – | 0.388 µM | > 29.7 µM | 0.19 µM | 0.245 µM | 0.693 µM | 0.337 µM | 14.5 | 0.313 µM | > 36 | 0.0567 µM | 0.162 µM | 0.296 µM | 6.5 µM | 0.265 µM | 0.768 | 0.299 µM | 20 µM | 0.343 |
| Cc1ccc(C(=O)c2sc3nc4c(cc3c2N)CCCC4)c(C)c1 | 0.236 µM | 11 µM | 0.872 µM | > 100 µM | 0.899 µM | 0.26 µM | > 100 µM | 0.159 µM | > 100 | 0.433 µM | > 100 | 0.32 µM | > 37.9 µM | 0.124 µM | > 73 µM | 0.265 µM | > 100 | 0.766 µM | > 100 µM | 5.07 |
| CC1=C(/C=C/C(=O)CC(=O)/C=C/C2=C(C)CCCC2(C)C)C(C)(C)CCC1 | 51.7 µM | > 100 µM | 34.3 µM | > 100 µM | 35.9 µM | 27.7 µM | > 100 µM | 30.8 µM | > 100 | 17.6 µM | 75.2 | 22.1 µM | 91.8 µM | 11.9 µM | 40.4 µM | 25.7 µM | > 100 | 26.8 µM | > 100 µM | > 100 |
| COc1cc(-n2cc(-c3ccccc3)[nH]c2=O)cc(OC)c1OC | 35.1 µM | > 100 µM | 45.5 µM | > 100 µM | > 100 µM | 58.1 µM | > 100 µM | 85.2 µM | > 100 | 40 µM | > 100 | 39.4 µM | > 100 µM | > 100 µM | > 100 µM | > 100 µM | > 100 | 37.9 µM | > 100 µM | > 100 |
| Nc1c(C(=O)Nc2ccccn2)sc2nc3c(cc12)C(O)CCC3 (stereo not drawn) | 1.53 µM | > 50 µM | 10.7 µM | > 50 µM | 2.51 µM | 1.72 µM | > 50 µM | 1.69 µM | > 50 | 1.34 µM | > 50 | 1.47 µM | > 50 µM | 0.179 µM | > 50 µM | 1.62 µM | > 50 | 3.68 µM | > 50 µM | > 50 |
| Cc1cc(-c2nnc(/C=C/c3ccc4c(c3)OCO4)o2)n[nH]1 | 7.54 µM | 40.7 µM | 27.2 µM | > 50 µM | 15.4 µM | 11.9 µM | > 50 µM | 11.4 µM | > 50 | 7.87 µM | > 50 | 13 µM | 39 µM | 2.39 µM | 48.3 µM | 2.85 µM | 19.8 | 14.7 µM | > 50 µM | > 50 |
| O=C1CC[C@H](N2Cc3c(OCc4ccc(CN5CCOCC5)cc4)cccc3C2=O)C(=O)N1 | > 100 µM | > 100 µM | > 100 µM | > 100 µM | > 100 µM | > 100 µM | > 100 µM | > 100 µM | > 100 | > 100 µM | > 100 | > 100 µM | > 100 µM | 4.83 µM | > 100 µM | > 100 µM | > 100 | > 100 µM | > 100 µM | > 100 |
| O=C(O)c1cc2ccccc2c2c3c(ccc12)OCO3 | 125 µM | 324 µM | 221 µM | > 1000 µM | 171 µM | 262 µM | > 1000 µM | 245 µM | > 1000 | 166 µM | 559 | 133 µM | 281 µM | 136 µM | 507 µM | 245 µM | > 1000 | 116 µM | 484 µM | 368 |
| CC[C@@]1(OC(=O)C(N)CCCCN)C(=O)OCc2c1cc1n(c2=O)Cc2cc3ccccc3nc2-1 (stereo partly drawn) | – | 0.455 µM | – | 0.129 µM | – | – | 0.495 µM | – | 15.6 | – | > 100 | – | 0.184 µM | – | < 0.0217 µM | – | > 28.7 | – | 0.148 µM | 3.39 |

Reference: PubChem BioAssay (NCI)
